Measurements from ChEMBL document CHEMBL3994623, “The synthesis and antistaphylococcal activity of 9, 13-disubstituted berberine derivatives” (Eur J Med Chem, 2017).
Converted amounts (≈) assume the structure as drawn.

Experiments:
[1] = tested on: Staphylococcus aureus; assay: Antistaphylococcal activity against Staphylococcus aureus Newman after 18 hrs by two fold serial dilution method; assay type: functional
[2] = tested on: Staphylococcus aureus; assay: Antistaphylococcal activity against aminoglycosides/tetracycline-resistant Staphylococcus aureus NRS-1 after 18 hrs by two fold serial dilution method; assay type: functional; conditions: NRS-1, 18 h
[3] = tested on: Staphylococcus aureus; assay: Antistaphylococcal activity against erythromycin-resistant Staphylococcus aureus NRS-70 after 18 hrs by two fold serial dilution method; assay type: functional; conditions: NRS-70, 18 h
[4] = tested on: Staphylococcus aureus; assay: Antistaphylococcal activity against oxacillin/tetracycline-resistant Staphylococcus aureus NRS-100 after 18 hrs by two fold serial dilution method; assay type: functional; conditions: NRS-100, 18 h
[5] = tested on: Staphylococcus aureus; assay: Antistaphylococcal activity against gentamicin-resistant Staphylococcus aureus NRS-108 after 18 hrs by two fold serial dilution method; assay type: functional; conditions: NRS-108, 18 h
[6] = tested on: Staphylococcus aureus; assay: Antistaphylococcal activity against linezolid-resistant Staphylococcus aureus NRS-271 containing phage type E-MRSA after 18 hrs by two fold serial dilution method; assay type: functional; conditions: NRS-271, 18 h
[7] = Cytotoxicity against HAF assessed as decrease in cell viability after 24 hrs by MTS assay; assay type: cell-based; conditions: Homo sapiens
[8] = tested on: Staphylococcus aureus; assay: Potency index, ratio of totarol MIC to test compound MIC for aminoglycosides/tetracycline-resistant Staphylococcus aureus NRS-1; assay type: functional
[9] = tested on: Staphylococcus aureus; assay: Potency index, ratio of totarol MIC to test compound MIC for erythromycin-resistant Staphylococcus aureus NRS-70; assay type: functional
[10] = tested on: Staphylococcus aureus; assay: Potency index, ratio of totarol MIC to test compound MIC for oxacillin/tetracycline-resistant Staphylococcus aureus NRS-100; assay type: functional
[11] = tested on: Staphylococcus aureus; assay: Potency index, ratio of totarol MIC to test compound MIC for linezolid-resistant Staphylococcus aureus NRS-271 containing phage type E-MRSA; assay type: functional
[12] = Cytotoxicity against HAF assessed as effect on cell morphology at […] ug/ml after 24 hrs by hematoxylin-eosin staining-based contrast microscopic method; conditions: human
[13] = Cytotoxicity against HAF assessed as effect on cell morphology at 12.5 ug/ml after 24 hrs by hematoxylin-eosin staining-based contrast microscopic method; conditions: human
[14] = tested on: Staphylococcus aureus; assay: Potency index, ratio of totarol MIC to test compound MIC for gentamicin-resistant Staphylococcus aureus NRS-108

With CCCCCNc1c(OC)ccc2c(CC(=O)OCC)c3[n+](cc12)CCc1cc2c(cc1-3)OCO2.[Br-] the MIC [1] was 12.5 µg/mL.
With CCCCCNc1c(OC)ccc2c(CCCN3CCOCC3)c3[n+](cc12)CCc1cc2c(cc1-3)OCO2.[I-] the MIC [1] was > 25 µg/mL.
Molecule CCCCCNc1c(OC)ccc2c(Cc3ccc(OC)cc3)c3[n+](cc12)CCc1cc2c(cc1-3)OCO2.[Br-] has an MIC [1] of 1.25 µg/mL, an MIC [2] of 1.56 µg/mL and an MIC [3] of 1.56 µg/mL. For the same molecule, the MIC [4] was 3.13 µg/mL, the MIC [5] was 1.56 µg/mL and the MIC [6] was 1.56 µg/mL. The IC50 [7] was 13.8 µg/mL.
Work on CCCCCNc1c(OC)ccc2c(Cc3ccc(F)cc3)c3[n+](cc12)CCc1cc2c(cc1-3)OCO2.[Br-] yielded an MIC [1] of 1.25 µg/mL, an MIC [2] of 3.13 µg/mL and an MIC [3] of 1.56 µg/mL. The MIC [4] was 3.13 µg/mL, the MIC [5] was 1.56 µg/mL and the MIC [6] was 1.56 µg/mL. The IC50 [7] was 12.7 µg/mL.
CCCCCCNc1c(OC)ccc2c(Cc3ccc(OC)cc3)c3[n+](cc12)CCc1cc2c(cc1-3)OCO2.[Br-] gave an MIC [1] of 2.5 µg/mL, an MIC [2] of 6.25 µg/mL and an MIC [3] of 3.13 µg/mL. The MIC [4] was 3.13 µg/mL, the MIC [5] was 3.13 µg/mL and the MIC [6] was 6.25 µg/mL.
Work on CCCCNc1c(OC)ccc2c(Cc3ccc(F)cc3)c3[n+](cc12)CCc1cc2c(cc1-3)OCO2.[Br-] yielded an MIC [1] of 2.5 µg/mL, an MIC [2] of 6.25 µg/mL and an MIC [3] of 3.13 µg/mL. It also gave an MIC [4] of 6.25 µg/mL, an MIC [5] of 3.13 µg/mL and an MIC [6] of 3.13 µg/mL.
CCCCCNc1c(OC)ccc2c(CC(=O)O)c3[n+](cc12)CCc1cc2c(cc1-3)OCO2.[Br-] showed an MIC [1] of 25 µg/mL.
Molecule CCCCCNc1c(OC)ccc2c(Cc3ccccn3)c3[n+](cc12)CCc1cc2c(cc1-3)OCO2.[Br-] has an MIC [1] of 12.5 µg/mL.
CCCCCNc1c(OC)ccc2c(Cc3ccc(C(F)(F)F)cc3)c3[n+](cc12)CCc1cc2c(cc1-3)OCO2.[Br-] gave an MIC [1] of 1.25 µg/mL, an MIC [2] of 1.56 µg/mL and an MIC [3] of 1.56 µg/mL. The MIC [4] was 1.56 µg/mL, the MIC [5] was 1.56 µg/mL and the MIC [6] was 1.56 µg/mL. For the same molecule, the Ratio [8] was 1 - 4, the Ratio [9] was 1 - 4 and the Ratio [10] was 1 - 4. For the same molecule, the Ratio [11] was 1 - 4, the IC50 [7] was 11.4 µg/mL and the Activity [12] was “Non-Toxic”. For the same molecule, the Activity [13] was “Toxic” and the Ratio [14] was 1 - 4.
With COc1ccc2cc3[n+](cc2c1OC)CCc1cc2c(cc1-3)OCO2 [BERBERINE] the MIC [1] was > 25 µg/mL.
In the case of CCCCCNc1c(OC)ccc2c(CCCN3CCCC3)c3[n+](cc12)CCc1cc2c(cc1-3)OCO2.[I-], the MIC [1] is reported as > 25 µg/mL.
CCCCCNc1c(OC)ccc2c(Cc3ccccc3C)c3[n+](cc12)CCc1cc2c(cc1-3)OCO2.[Br-] gave an MIC [1] of 1.25 µg/mL, an MIC [2] of 3.13 µg/mL and an MIC [3] of 1.56 µg/mL. For the same molecule, the MIC [4] was 3.13 µg/mL, the MIC [5] was 1.56 µg/mL and the MIC [6] was 3.13 µg/mL. It also gave an IC50 [7] of 13 µg/mL.
CCCCCCNc1c(OC)ccc2c(Cc3ccc(C)cc3)c3[n+](cc12)CCc1cc2c(cc1-3)OCO2.[Br-] gave an MIC [1] of 1.56 µg/mL, an MIC [2] of 1.56 µg/mL and an MIC [3] of 1.56 µg/mL. It also gave an MIC [4] of 1.56 µg/mL, an MIC [5] of 1.56 µg/mL and an MIC [6] of 1.56 µg/mL. The Ratio [8] was 1 - 4, the Ratio [9] was 1 - 4 and the Ratio [10] was 1 - 4. The Ratio [11] was 1 - 4, the IC50 [7] was 12.8 µg/mL and the Activity [12] was “Non-Toxic”. For the same molecule, the Activity [13] was “Toxic” and the Ratio [14] was 1 - 4.
Molecule CN[C@H](CC(C)C)C(=O)N[C@H]1C(=O)N[C@@H](CC(N)=O)C(=O)N[C@H]2C(=O)N[C@H]3C(=O)N[C@H](C(=O)N[C@H](C(=O)O)c4cc(O)cc(O)c4-c4cc3ccc4O)[C@H](O)c3ccc(c(Cl)c3)Oc3cc2cc(c3O[C@@H]2O[C@H](CO)[C@@H](O)[C@H](O)[C@H]2O[C@H]2C[C@](C)(N)[C@H](O)[C@H](C)O2)Oc2ccc(cc2Cl)[C@H]1O [VANCOMYCIN] has an MIC [1] of 0.78 µg/mL (≈ 0.538 µM), an MIC [2] of 1.56 µg/mL (≈ 1.08 µM) and an MIC [3] of 0.39 µg/mL (≈ 0.269 µM). For the same molecule, the MIC [4] was 0.78 µg/mL (≈ 0.538 µM), the MIC [5] was 0.39 µg/mL (≈ 0.269 µM) and the MIC [6] was 0.39 µg/mL (≈ 0.269 µM).
Work on CCCCCCNc1c(OC)ccc2c(Cc3ccc(F)cc3)c3[n+](cc12)CCc1cc2c(cc1-3)OCO2.[Br-] yielded an MIC [1] of 1.56 µg/mL, an MIC [2] of 3.13 µg/mL and an MIC [3] of 3.13 µg/mL. The MIC [4] was 6.25 µg/mL, the MIC [5] was 3.13 µg/mL and the MIC [6] was 3.13 µg/mL.
For CCCCCNc1c(OC)ccc2c(CCCN3CCCCC3)c3[n+](cc12)CCc1cc2c(cc1-3)OCO2.[I-], the MIC [1] was > 25 µg/mL.
Molecule CCCCCNc1c(OC)ccc2cc3[n+](cc12)CCc1cc2c(cc1-3)OCO2.[Cl-] has an MIC [1] of 3.13 µg/mL.
Molecule COc1ccc2c(Cc3ccc(C)cc3)c3[n+](cc2c1OC)CCc1cc2c(cc1-3)OCO2.[Br-] has an MIC [1] of 6.25 µg/mL.
CCCCCNc1c(OC)ccc2c(Cc3cccc(C)c3)c3[n+](cc12)CCc1cc2c(cc1-3)OCO2.[Br-] showed an MIC [1] of 1.25 µg/mL, an MIC [2] of 3.13 µg/mL and an MIC [3] of 1.56 µg/mL. The MIC [4] was 3.13 µg/mL, the MIC [5] was 1.56 µg/mL and the MIC [6] was 1.56 µg/mL. The IC50 [7] was 12.7 µg/mL.
Molecule CCCCCNc1c(OC)ccc2c(Cc3ccccc3)c3[n+](cc12)CCc1cc2c(cc1-3)OCO2.[Br-] has an MIC [1] of 1.56 µg/mL, an MIC [2] of 3.13 µg/mL and an MIC [3] of 1.56 µg/mL. For the same molecule, the MIC [4] was 1.56 µg/mL, the MIC [5] was 1.56 µg/mL and the MIC [6] was 1.56 µg/mL. For the same molecule, the IC50 [7] was 15.8 µg/mL.
With CCCCCNc1c(OC)ccc2c(Cc3ccc(O)cc3)c3[n+](cc12)CCc1cc2c(cc1-3)OCO2.[Br-] the MIC [1] was 2.5 µg/mL, the MIC [2] was 6.25 µg/mL and the MIC [3] was 1.56 µg/mL. The MIC [4] was 3.13 µg/mL, the MIC [5] was 3.13 µg/mL and the MIC [6] was 3.13 µg/mL. The IC50 [7] was > 20 µg/mL, the Activity [12] was “Non-Toxic” and the Activity [13] was “Toxic”.
For CCCCCNc1c(OC)ccc2c(Cc3cccs3)c3[n+](cc12)CCc1cc2c(cc1-3)OCO2.[Br-], the MIC [1] was 3.13 µg/mL.
Molecule COc1ccc2c(Cc3ccc(C)cc3)c3[n+](cc2c1NCCCO)CCc1cc2c(cc1-3)OCO2.[Br-] has an MIC [1] of 6.25 µg/mL.
In the case of CCCCCCNc1c(OC)ccc2c(Cc3ccccc3)c3[n+](cc12)CCc1cc2c(cc1-3)OCO2.[Br-], the MIC [1] is reported as 2.5 µg/mL, the MIC [2] is reported as 1.56 µg/mL and the MIC [3] is reported as 1.56 µg/mL. It also gave an MIC [4] of 3.13 µg/mL, an MIC [5] of 3.13 µg/mL and an MIC [6] of 3.13 µg/mL.
CCCCNc1c(OC)ccc2c(Cc3ccc(C)cc3)c3[n+](cc12)CCc1cc2c(cc1-3)OCO2.[Br-] showed an MIC [1] of 1.56 µg/mL, an MIC [2] of 1.56 µg/mL and an MIC [3] of 1.56 µg/mL. For the same molecule, the MIC [4] was 1.56 µg/mL, the MIC [5] was 3.13 µg/mL and the MIC [6] was 1.56 µg/mL.
For COc1ccc2c(Cc3ccc(C)cc3)c3[n+](cc2c1NCCCc1ccccc1)CCc1cc2c(cc1-3)OCO2.[Br-], the MIC [1] was 3.13 µg/mL.
COc1ccc2c(Cc3ccccc3)c3[n+](cc2c1OC)CCc1cc2c(cc1-3)OCO2.[Br-] showed an MIC [1] of 6.25 µg/mL.
With CCCCNc1c(OC)ccc2c(Cc3ccccc3)c3[n+](cc12)CCc1cc2c(cc1-3)OCO2.[Br-] the MIC [1] was 3.13 µg/mL and the IC50 [7] was > 20 µg/mL.
CCCCCNc1c(OC)ccc2c(Cc3ccc(C)cc3)c3[n+](cc12)CCc1cc2c(cc1-3)OCO2.[Br-] showed an MIC [1] of 0.78 µg/mL, an MIC [2] of 1.56 µg/mL and an MIC [3] of 1.56 µg/mL. The MIC [4] was 0.78 µg/mL, the MIC [5] was 1.56 µg/mL and the MIC [6] was 1.56 µg/mL. The Ratio [8] was 1 - 4, the Ratio [9] was 1 - 4 and the Ratio [10] was 1 - 4. For the same molecule, the Ratio [11] was 1 - 4, the IC50 [7] was 12.5 µg/mL and the Activity [12] was “Non-Toxic”. The Activity [13] was “Toxic” and the Ratio [14] was 1 - 4.
With CCCCCNc1c(OC)ccc2c(Cc3ccc(C)c(C)c3)c3[n+](cc12)CCc1cc2c(cc1-3)OCO2.[Br-] the MIC [1] was 1.25 µg/mL, the MIC [2] was 3.13 µg/mL and the MIC [3] was 1.56 µg/mL. It also gave an MIC [4] of 1.56 µg/mL, an MIC [5] of 1.56 µg/mL and an MIC [6] of 1.56 µg/mL. It also gave an IC50 [7] of 12.5 µg/mL.
In the case of CCCCNc1c(OC)ccc2c(Cc3ccc(OC)cc3)c3[n+](cc12)CCc1cc2c(cc1-3)OCO2.[Br-], the MIC [1] is reported as 2.5 µg/mL, the MIC [2] is reported as 6.25 µg/mL and the MIC [3] is reported as 3.13 µg/mL. The MIC [4] was 6.25 µg/mL, the MIC [5] was 3.13 µg/mL and the MIC [6] was 6.25 µg/mL.
